Measured values reported in patent US20130072424A1, “COMPOUNDS AND METHODS FOR PEPTIDE RIBONUCLEIC ACID CONDENSATE PARTICLES FOR RNA THERAPEUTICS” (MARINA BIOTECH, INC., priority 2005, published 2013).
Ends that are not written are not given here. Peptide text beside a SMILES is read from it. * marks the point of attachment. 5FAM = O=C1OC2(c3ccc(O)cc3Oc3cc(O)ccc32)c2ccc(C(=O)*)cc21

Tests used:
[1] = tested on: mouse tail fibroblast (MTF) cells; test: Polypeptide mediated siRNA delivery screen (Cy5-siRNA cell-uptake and MFI), Example 17; assay type: cell-based; details: for MFI measurement relative to the positive control / MFI measurement relative to the PN643 positive control, in words: Cy5-conjugated siRNA; for percent siRNA cell-uptake activity (Table 24): Cy5 conjugated LC20 siRNA, concentration not given
Experimental: siRNA uptake by cells was assessed by flow cytometry (refer to Example 2 for details). Uptake was expressed as a percentage calculated by dividing the number of cells containing Cy5-conjugated siRNA by the total number of transfected and untransfected cells in culture. Mean Fluorescence Intensity (MFI) was measured by flow cytometry and determined the amount of Cy5-conjugated siRNA found within cells. The MFI value directly correlates with the amount of Cy5-conjugated siRNA within the cell, thus, a higher MFI value indicates a greater number of Cy5-conjugated siRNA within the cells.

hTNF-α mRNA = test: Knockdown of hTNF-α gene expression by siRNA/peptide complexes in LPS-stimulated human monocytes (branch DNA mRNA); assay type: cell-based; details: for siRNA Knockdown Activity: 20 nM siRNA
Experimental: Specifically, the ability of siRNA/peptide complexes to modulate expression of the human tumor necrosis factor-α (hTNF-α) gene was assessed. The significance of targeting the hTNF-α gene is that it is implicated in mediating the occurrence or progression of rheumatoid arthritis (RA) when over-expressed in human and other mammalian subjects.
Human monocytes were used as a model system to determine the effect of siRNA/peptide complexes on hTNF-α gene expression. Qneg represents a random siRNA sequence and functioned as the negative control. […] A19S21, 21/21 and LC20 are siRNAs that target hTNF-α mRNA.
Healthy human blood was purchased from Golden West Biologicals (CA), the peripheral blood mononuclear cells (PBMC) were purified from the blood using Ficoll-Pague plus (Amersham) gradient. Human monocytes were then purified from the PBMCs fraction using magnetic microbeads from Miltenyi Biotech. Isolated human monocytes were resuspended in IMDM supplemented with 4 mM glutamine, 10% FBS, 1× non-essential amino acid and 1× pen-strep, and stored at 4 C until use.
In a 96 well flat bottom plate, human monocytes were seeded at 100 K/well/100 μl in OptiMEM medium (Invitrogen). Exemplary polynucleotide delivery-enhancing polypeptides were mixed with 20 nM siRNA at a molar ratio of 1 to 5 in OptiMEM medium at room temperature for 5 minutes. At the end of incubation, FBS was added to the mixture (final 3%), and 50 μl of the mixture was added to the cells. The cells were incubated at 37° C. for 3 hours. After incubation, the cells were transferred to V-bottom plate and pelleted at 1500 rpm for 5 min. The cells were resuspended in growth medium (IMDM with glutamine, non-essential amino acid, and pen-strep). After an overnight incubation, the monocytes were stimulated by application of LPS (Sigma) at 1 ng/ml for 3 hours to increase expression of TNF-α expression levels. After induction by LPS, cells were collected as above for mRNA quantification, and supernatant was saved for protein quantification if desired.
For mRNA measurement, branch DNA technology from Genospectra (CA) was used according to manufacturer's specification. To quantitate mRNA level in the cells, both house keeping gene (cypB) and target gene (TNF-α) mRNA were measured, and the reading for TNF-α was normalized with cypB to obtain relative luminescence unit. […]

human monocytes = test: Cytotoxicity with human monocytes; assay type: cell-based
[2] = tested on: mouse tail fibroblast (MTF) cells; test: siRNA cell-uptake assay and MFI (Cy5-conjugated siRNA, flow cytometry), Examples 14-16; assay type: cell-based
Experimental: As described above, the cell-uptake assay determines the number of cells that receive Cy5-conjugated siRNA when complexed with a peptide. siRNA cell-uptake was assessed by flow cytometry (refer to Example 2 for details). Uptake was expressed as a percentage calculated by dividing the number of cells containing Cy5-conjugated siRNA by the total number of transfected and untransfected cells in culture. Mean Fluorescence Intensity (MFI) was measured by flow cytometry and determined the amount of Cy5-conjugated siRNA found within cells. The MFI value directly correlates with the amount of Cy5-conjugated siRNA within the cell, thus, a higher MFI value indicates a greater number of Cy5-conjugated siRNA within the cells.
The siRNA cell-uptake assay and MFI measurements were performed as described previously in Examples 2 and 3. […]

in vitro = details: mouse, mouse tail fibroblast (MTF) cells
Experimental: Fluorescence activated cell sorting (FACS) analysis were performed using Beckman Coulter FC500 cell analyzer (Fullerton, Calif.). The instrument was adjusted according to the fluorescence probes used (FAM or Cy5 for siRNA and FITC and PE for CD14). Propidium iodide (Fluka, St Louis) and AnnexinV (R&D systems, Minneapolis) were used as indicators for cell viability and cytotoxicity. A brief step-by-step protocol is detailed below. • (a) After exposure to the complex of siRNA/peptide, cells were incubated for at least 3 hours. • (b) Wash cells with 200 μl PBS. • (c) Detach cells with 15 μl TE, incubate at 370 C. • (d) Re-suspend cells in five wells with 30 μl FACS solution (PBS with 0.5% BSA, and 0.1% sodium Azide). • (e) Combine all five wells into a tube. • (f) Add PI (Propidium iodide) 5 μl into each tube. • (g) Analyze the cells with fluorescence activated cell sorting (FCAS) according to manufacturer's instructions.
For siRNA uptake analysis, cells were washed with PBS, treated with trypsin (attached cells only), and then analyzed by flow cytometry. […] In order to differentiate the cellular uptake from the membrane insertion of fluorescence labeled siRNA, trypan blue was used to quench the fluorescence on the cell membrane surface.
FITC-tagged peptides were diluted in Opti-MEM® media (Invitrogen) for about 5 minutes at room temperature and then added to cells. Cells were transfected for 3 hours at and washed with PBS, treated with trypsin, and then analyzed by flow cytometry. Cell viability was determined as above. Cellular uptake was distinguished from the membrane insertion using trypan blue to quench any fluorescence on the cell membrane surface.

[3] = tested on: primary mouse tail fibroblast (MTF) cells; test: Peptide cell-uptake assay (FITC-labeled peptide, flow cytometry); assay type: cell-based; details: peptide 10 μM
Experimental: The efficacy of the full-length and truncated forms of polypeptide PN73 to enter cells was tested in vitro by a cell-uptake assay with primary mouse tail fibroblast (MTF) cells. The number of cells in culture that receive the FITC-labeled peptide was measured by flow cytometry. The percentage peptide cell-uptake was expressed relative to the total number of cells present in the culture. In addition, the Mean Fluorescence Intensity (MFI) was used to evaluate the quantity of FITC-labeled peptide found within cells. MFI directly correlates with the amount of FITC-labeled peptide within the cell: higher relative MFI value correlates with a greater amount of intracellular FITC-labeled peptides. Peptides were evaluated at 0.63 μM, 2.5 μM and 10 μM concentrations; PN768 was tested at 2 μM, 10 μM and 50 μM. […]

[4] = siRNA 21/21 MD8, siRNA:Peptide Ratio 1:5, human monocytes
[5] = siRNA 21/21 MD8, siRNA:Peptide Ratio 1:10, human monocytes
[6] = siRNA A19S21 MD8, siRNA:Peptide Ratio 1:5, human monocytes
[7] = siRNA A19S21 MD8, siRNA:Peptide Ratio 1:10, human monocytes
[8] = siRNA LC20, siRNA:Peptide Ratio 1:5, human monocytes
[9] = siRNA LC20, siRNA:Peptide Ratio 1:10, human monocytes

Compound: RKKRRQRRRPPVAYISRGGVSTYYSDTVKGRFTRQKYNKRA-amide (RKKRRQRRRPPVAYISRGGVSTYYSDTVKGRFTRQKYNKRA-NH2) [PN760, TAT + Peptide P3a]
- MFI measurement relative to the positive control [1]: approximately 13 fold

Compound: KKKKKRFSFKKSFKLSGFSFKKNKK-amide (KKKKKRFSFKKSFKLSGFSFKKNKK-NH2) [PN681, MARCKS]
- hTNF-α knockdown relative to Qneg complexed with the same polypeptide, in words (hTNF-α mRNA; all three siRNAs, ratios of 1:5 and 1:10, human monocytes): little to no knockdown activity
- siRNA Knockdown Activity (hTNF-α mRNA; [4]): −
- siRNA Knockdown Activity (hTNF-α mRNA; [5]): −
- siRNA Knockdown Activity (hTNF-α mRNA; [6]): +/− (the peptide/siRNA complex had a knockdown activity of approximately 90% of the Qneg negative control siRNA (10% reduction in mRNA levels compared to the Qneg negative control))
- siRNA Knockdown Activity (hTNF-α mRNA; [7]): +/− (the peptide/siRNA complex had a knockdown activity of approximately 90% of the Qneg negative control siRNA (10% reduction in mRNA levels compared to the Qneg negative control))
- siRNA Knockdown Activity (hTNF-α mRNA; [8]): −
- siRNA Knockdown Activity (hTNF-α mRNA; [9]): −
- MFI measurement relative to the PN643 positive control, in words [1]: double

Compound: LGLLLRHLRHHSNLLANIPRKKRRQRRRPP-amide (LGLLLRHLRHHSNLLANIPRKKRRQRRRPP-NH2) [PN759]
- MFI measurement relative to the positive control [1]: ~6 fold

Compound: RKESYSVYVYKVLKQ-NH2 [PN766]
- cytotoxicity effects (human monocytes): No cytotoxicity effects were observed

Compound: GTAMRILGGVIPRKKRRQRRRPPQ-amide (GTAMRILGGVIPRKKRRQRRRPPQ-NH2) [PN734, m-Calpain + TAT]
- MFI measurement relative to the PN643 positive control, in words [1]: significantly lower

Compound: RSVCRQIKICRRRGGCYYKCTNRPY-amide (RSVCRQIKICRRRGGCYYKCTNRPY-NH2; cysteine pairing not given here) [PN680, Androctonin]
- hTNF-α mRNA knockdown relative to the Qneg/PN680 control complex, in words (hTNF-α mRNA; any of the hTNF-α specific siRNAs at a 1:5 ratio): significant knockdown activity
- siRNA Knockdown Activity (hTNF-α mRNA; [4]): + (the peptide/siRNA complex had knockdown activity of 80% of the Qneg negative control siRNA (20% reduction in mRNA levels compared to the Qneg negative control))
- siRNA Knockdown Activity (hTNF-α mRNA; [5]): +/− (the peptide/siRNA complex had a knockdown activity of approximately 90% of the Qneg negative control siRNA (10% reduction in mRNA levels compared to the Qneg negative control))
- siRNA Knockdown Activity (hTNF-α mRNA; [6]): + (the peptide/siRNA complex had knockdown activity of 80% of the Qneg negative control siRNA (20% reduction in mRNA levels compared to the Qneg negative control))
- siRNA Knockdown Activity (hTNF-α mRNA; [7]): +/− (the peptide/siRNA complex had a knockdown activity of approximately 90% of the Qneg negative control siRNA (10% reduction in mRNA levels compared to the Qneg negative control))
- siRNA Knockdown Activity (hTNF-α mRNA; [8]): + (the peptide/siRNA complex had knockdown activity of 80% of the Qneg negative control siRNA (20% reduction in mRNA levels compared to the Qneg negative control))
- siRNA Knockdown Activity (hTNF-α mRNA; [9]): + (the peptide/siRNA complex had knockdown activity of 80% of the Qneg negative control siRNA (20% reduction in mRNA levels compared to the Qneg negative control))
- MFI measurement relative to the PN643 positive control, in words [1]: comparable

Compound: CC(C)C[C@H](NC(=O)[C@@H](NC(=O)[C@H](CCCCN)NC(=O)[C@H](Cc1ccc(O)cc1)NC(=O)[C@@H](NC(=O)[C@H](Cc1ccc(O)cc1)NC(=O)[C@@H](NC(=O)[C@H](CO)NC(=O)[C@H](Cc1ccc(O)cc1)NC(=O)[C@H](CO)NC(=O)[C@H](CCC(=O)O)NC(=O)[C@H](CCCCN)NC(=O)[C@@H](N)CCCNC(=N)N)C(C)C)C(C)C)C(C)C)C(=O)N[C@@H](CCCCN)C(=O)N[C@@H](CCC(N)=O)C(=O)NCC(=O)N[C@@H](CCCCNC(=O)c1ccc2c(c1)C(=O)OC21c2ccc(O)cc2Oc2cc(O)ccc21)C(=O)NCC(N)=O [PN708] (H-RKESYSVYVYKVLKQGK(5FAM)G-NH2)
- KD (hTNF-α mRNA; knockdown of hTNF-α mRNA vs Qneg, siRNAs A19S21, 21/21, LC20 at 20 nM, molar ratio 1 to 5, human monocytes): + (the peptide/siRNA complex had knockdown activity of 80% of the Qneg negative control siRNA (20% reduction in mRNA levels compared to the Qneg negative control))
- siRNA knockdown activity of TNF-α mRNA, in words (hTNF-α mRNA; siRNAs A19S21, 21/21 and LC20, human monocytes): no observable knockdown activity
- amount of Cy5-siRNA delivered into cells compared to the full-length PN73 (PN690) peptide [2]: about doubled
- maximum siRNA cell-uptake activity ([2]; Cy5-LC20 siRNA, PN708 at 80 μM): 95%
- % siRNA Cell-Uptake ([2]; peptide 10 μM): 42 (10 μM) %
- siRNA Cy5 MFI ([2]; peptide 10 μM, relative values): 34 (10 μM)
- viability at 3 h (in vitro): > 90%
- % Peptide Cell-Uptake [3]: 97 (10 μM) %
- Peptide FITC MFI ([3]; relative values): 10 (10 μM)

Compound: RQIRIWFQNRRMRWRR-amide (RQIRIWFQNRRMRWRR-NH2) [PN714, PenArg]
- MFI measurement relative to the PN643 positive control, in words [1]: significantly lower
- percent siRNA cell-uptake activity (Table 24) [1]: 43%

Compound: RQIKIWFQNRRMKWKK-amide (RQIKIWFQNRRMKWKK-NH2) [PN694, Penetratin]
- MFI measurement relative to the PN643 positive control, in words [1]: significantly lower
- percent siRNA cell-uptake activity (Table 24) [1]: 54%

Compound: KETWWETWWTEWSQPKKKRKV-amide (KETWWETWWTEWSQPKKKRKV-NH2) [PN682, Pep-1]
- MFI measurement relative to the PN643 positive control, in words [1]: comparable
